Source: patent US6630491B1, “Use of nicotinic analogs for treatment of degenerative diseases of the nervous system” (priority 1991, dated 2003)
Structures can show the parent of a compound that is named as a salt.

Assays:
[1] = test system: isolated terminals (synaptosomes) of cerebral cortex; assay: Release of [3H]aspartate from isolated terminals
Text: (§1) Neurotransmitter release from synaptosomes provides a potential marker for receptor-activity at different types of nerve terminals. Neurotransmitter release from intact slices or minces provides a marker for receptor activity at many sites on the neuron. A comparison of the effects of nicotine and other drugs on synaptosomes versus slices provides some idea as to the location of nicotinic receptors on different types of cerebral cortical neurons, as well as their cellular location.
(§2) These different types of cerebral cortical transmitter systems have been tested. The first is the cholinergic; the procedures used to load cholinergic neurons or slices with newly synthesized [3H]ACh were described previously (Meyer, et al., 1987). The second is aspartate, an excitatory amino acid which, like glutamate, is associated with memory (long term potentiation) and neuropathology (e.g., stroke). The third type of neurotransmitter is GABA, which is the predominant transmitter in the cerebral cortex and is therefore very likely to receive cholinergic innervation.
(§3) In order to measure aspartate or GABA release, tissues were incubated with 100 nM [3H] aspartate or 250 nM [3h] GABA in Krebs Ringer buffer at 37° C. for 30 minutes, then washed them in ice cold buffer. All release-incubations were at 37° C. for 15 minutes in the presence or absence of 50 mM KCl (depolarization). Radiation accumulation was also measured in slices in order to express the released levels of transmitter as % of total transmitter, since slices were somewhat variable with respect to accumulation of label. K+ induced release of transmitter was determined by subtracting the basal release from that in the presence of the elevated K+, such that only the incremental release was determined.
(§4) Neurotransmitter levels (aspartate, glutamate) and enzyme levels were assayed as described by Arendash, et al., Science, 238:952, 1987. […] ACh from synaptosomes. Also, no effect was seen on the release of [3H] aspartate from isolated terminals.

aged rats [2] = assay: Lashley III maze testing of aged rats; type: in vivo, rat; conditions: aged animals, 2 mg/kg before training, first two blocks of tests, FIG. 5
Text: The Lashley III maze tests an animal's ability to learn a series of left-right alternation turns. Six alternation errors are possible for any given daily trial; chance performance level is 3 errors per trial. Previous studies have shown that young adult sham operated animals quickly learn to reduce their number of alternation errors to near zero by the end of the test period. By contrast, 23 months old (Aged) sham operated animals made substantially more errors over the 25 days of testing. […] Therefore, both age- and lesion-induced learning deficits were observed. Nonetheless, all groups did improve their performance over time.
Aged animals injected with saline or DMAB-anabaseine were evaluated in the Lashley III maze (FIG. 5). […] This reflected an improvement in another memory-related behavior with this nicotine agonist.

[3] = test system: Male Sprague Dawley albino rats; assay: Passive avoidance behavior in nucleus basalis lesioned and unlesioned rats; type: in vivo, rat; conditions: for shift (increase) in potency by lesioning: lesioned vs unlesioned animals; for shift (increase) in potency by lesioning / potency in lesioned vs unlesioned animals: passive avoidance; for potency in lesioned vs unlesioned animals: FIGS. 1 and 2; for dose that interfered with training or behavior: after lesioning; for effective dose in passive avoidance behavior: i.p. 5 min before trial and testing
Method: Male Sprague Dawley albino rats were used for all studies and were maintained in departmental animal facilities, using NIH guidelines for care of animals. Where lesioned animals were tested, lesions were induced in anesthetized animals by bilateral infusion of ibotenic acid (5 μg in 1 μl) or phosphate buffered saline (PBS) into the nucleus basalis region.
For passive avoidance behavior, animals received a moderately strong shock (0.8 m Amp) for 1 second after entering a dark room. After 24 hours, the animals were again tested to determine if they could remember to stay out of the dark room. Animals were only allowed 5 minutes to make their choice, when they were removed from the lighted chamber. For testing the effects of drugs in animals that were not lesioned, shocks were only 0.5m Amp in intensity, and the animals were allowed 72 hours until they were tested after training. In all drug-treatment studies, the drugs were injected intraperitoneally in saline diluent 5 minutes before the trial and 5 minutes before the testing period.
The effect of (−)anabaseine on passive avoidance was also determined using unlesioned animals (FIG. 3). In these experiments (−)anabaseine was injected intraperitoneally 5 min. before training and testing in the passive avoidance apparatus. Only animals that trained within 300 sec the first time were used (i.e., those animals that entered the dark compartment and received a mild foot shock).

aged rats [4] = assay: 17-arm radial maze testing of aged rats; type: in vivo, rat; conditions: 2 mg/kg 15 minutes prior to each daily trial, FIG. 4
Text: The 17 arm radial maze requires animals to remember a baited set of 8 arms out of the 17 total arms. At the start of each daily trial, rats are placed in the center of the maze and permitted to choose among the 17 arms until all 8 food rewards are taken or until fifteen minutes elapse. Those animals that reach a performance criteria of 17 arm choices on two consecutive days of testing during the first 14 days of testing are continued in testing for an additional 30 days. For such animals, only data collected after day 14 are used in the statistical analyses. Statistical analyses are done on 3 sets of data. The first is a measure of general learning: the percent correct choices (entries into baited arms) over the first 8 arm choices. The second is a measure of short term memory (working memory) calculated from the first 12 arm choices: the percent of choices into baited arms (containing food) over the total number of choices within the baited set. Working memory, an interatrial measure of short term memory, measured the rat's ability to remember which of the arms in the baited set were previously entered and the food reward taken. The third set of data measured long-term or reference memory and also was calculated from the first 12 arm choices. Reference memory, defined as an inter-trial measure, is the percent correct choices in the baited set over the total number of arm choices. […]

brain tissue slices = assay: Aspartate release from brain tissue slices; conditions: for aspartate release, dose relation: except at one low concentration, FIGS. 6 and 7
Text: as §2, §3
The fact that nicotine […] without increasing basal release as well as K+ induced release is surprising. One hypothesis is that nicotine stimulates another type of neuron (presumably excitatory) to dis-inhibit the release of aspartate; this dis-inhibition would not be seen except when the aspartate neuron itself was activated by depolarization.

[5] = test system: cerebral cortical synaptosomes; assay: Release of newly synthesized [3H]ACh from synaptosomes
Text: as §1, §2, §3, §4

[6] = Water solubility (observation during synthesis); type: physicochemical
Method: The lithium enolate of 3nicotinoyl2-piperidone (4.94w) of step 1 was added slowly to a round bottom flask containing 30 mL of concentrated HCl which was chilled in an ice bath and stirred. The enolate was not readily soluble. The reaction mixture was heated at reflux under nitrogen overnight to effect the hydrolysis and decarboxylation. […] The reaction should not be diluted with too much aqueous acid or the product will not crystallize during the work up.

cortical slices [7] = assay: [3H]GABA release from cortical slices
Text: as §2, §3
This pattern was also observed with [3H]ACh release and [3H]GABA release from cortical slices. […]

[8] = test system: vertebrate neuromuscular nicotinic acetylcholine receptors; conditions: Kem, Amer.Zoologist, 25:99, 1985; cited from earlier work
cortical slices [9] = assay: [3H]ACh release from cortical slices
Text: as §2, §3
This pattern was also observed with [3H]ACh release and [3H]GABA release from cortical slices. Nicotine (100 nM) increased the K+ induced release of ACh but reduced the K+induced GABA release from slices, while anabaseine (1 μM) had no effect on either process. […] Thus, it appears that the ability of nicotinic types of compounds to modulate neurotransmitter release is not mediated through one of the receptors with high affinity for anabaseine, or DMAB-anabaseine.

[10] = even in animals with reduced neocortical cholinergic activity

Chain of vertebrate neuromuscular nicotinic acetylcholine receptors (P02708 21-457): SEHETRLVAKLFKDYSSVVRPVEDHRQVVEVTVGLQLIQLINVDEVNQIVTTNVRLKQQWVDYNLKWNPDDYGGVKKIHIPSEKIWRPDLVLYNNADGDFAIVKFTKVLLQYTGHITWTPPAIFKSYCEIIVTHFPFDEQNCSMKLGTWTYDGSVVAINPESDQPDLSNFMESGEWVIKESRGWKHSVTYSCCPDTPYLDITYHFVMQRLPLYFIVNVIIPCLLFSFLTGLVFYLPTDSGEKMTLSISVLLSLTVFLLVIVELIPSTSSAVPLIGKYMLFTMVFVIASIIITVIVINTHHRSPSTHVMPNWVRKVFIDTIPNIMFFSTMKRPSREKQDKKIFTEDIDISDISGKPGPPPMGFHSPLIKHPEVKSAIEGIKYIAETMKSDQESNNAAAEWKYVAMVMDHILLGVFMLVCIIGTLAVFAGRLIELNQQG
Chain of vertebrate neuromuscular nicotinic acetylcholine receptors (P11230 24-501 partner): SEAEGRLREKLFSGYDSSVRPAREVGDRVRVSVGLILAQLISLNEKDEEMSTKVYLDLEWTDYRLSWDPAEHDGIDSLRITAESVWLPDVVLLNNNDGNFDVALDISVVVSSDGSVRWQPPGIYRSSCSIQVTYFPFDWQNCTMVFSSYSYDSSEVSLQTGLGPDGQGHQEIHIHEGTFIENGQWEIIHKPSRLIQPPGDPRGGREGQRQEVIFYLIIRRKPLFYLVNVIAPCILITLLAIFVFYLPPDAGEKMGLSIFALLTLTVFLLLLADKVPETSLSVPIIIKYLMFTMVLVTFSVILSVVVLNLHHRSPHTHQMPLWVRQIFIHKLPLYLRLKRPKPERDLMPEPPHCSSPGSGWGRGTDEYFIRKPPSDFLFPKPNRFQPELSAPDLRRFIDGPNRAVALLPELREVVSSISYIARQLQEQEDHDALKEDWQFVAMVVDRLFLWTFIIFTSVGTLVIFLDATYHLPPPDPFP
Chain of vertebrate neuromuscular nicotinic acetylcholine receptors (Q07001 22-517 partner): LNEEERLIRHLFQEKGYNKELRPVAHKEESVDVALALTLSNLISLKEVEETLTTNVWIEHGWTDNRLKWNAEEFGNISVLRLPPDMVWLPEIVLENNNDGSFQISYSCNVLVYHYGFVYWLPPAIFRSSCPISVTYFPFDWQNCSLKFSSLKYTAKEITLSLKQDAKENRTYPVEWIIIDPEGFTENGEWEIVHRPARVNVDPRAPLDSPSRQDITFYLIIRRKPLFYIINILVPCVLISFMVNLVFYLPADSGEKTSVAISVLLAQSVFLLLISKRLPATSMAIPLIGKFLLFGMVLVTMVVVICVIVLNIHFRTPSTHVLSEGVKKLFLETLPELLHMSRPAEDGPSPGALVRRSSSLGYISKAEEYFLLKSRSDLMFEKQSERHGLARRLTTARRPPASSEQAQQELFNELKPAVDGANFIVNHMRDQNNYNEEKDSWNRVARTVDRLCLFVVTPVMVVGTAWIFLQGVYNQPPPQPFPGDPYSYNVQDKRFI

| SMILES | release of [3H]aspartate [1] | effect on passive avoidance (memory-related) behavior [3, 10] | shift (increase) in potency by lesioning [3] | potency in lesioned vs unlesioned animals [3] | aspartate release, dose relation (brain tissue slices) | 50 mM KCl induced release of newly synthesized [3H]ACh [5] | basal release of newly synthesized [3H]ACh [5] | dose that interfered with training or behavior [3] | also measured |
| --- | --- | --- | --- | --- | --- | --- | --- | --- | --- |
| CN(C)c1ccc(C=C2CCCN=C2c2cccnc2)cc1 [DMAB-anabaseine, 3-[p-(dimethylamino)benzylidene]-3,4,5,6-tetrahydro-2,3′-bipyridine] | no effect | can improve this type of memory-related behavior | 2-2.5 fold | more potent in lesioned then in unlesioned animals | did not increase aspartate release in a dose-related manner | no effect | no effect |  | number of errors in the maze (aged rats [2]): reduced the number of errors; measure of long term memory (aged rats [4]): improved; short term memory (aged rats [4]): without affecting |
| c1cncc(C2=NCCCC2)c1 [anabaseine dihydrochloride] |  |  |  |  |  |  |  |  | water solubility [6]: very water soluble |
| c1cncc(C2=NCCCC2)c1 [anabaseine, 2-(3-pyridyl)-3,4,5,6-tetrahydropyridine] | no effect | can improve this type of memory-related behavior | ~2.5 fold | more potent in lesioned then in unlesioned animals | did not increase aspartate release in a dose-related manner | no effect | no effect | 0.2 mg/kg | effect on passive avoidance (memory-related) behavior ([3]; unlesioned animals, i.p. 5 min before training and testing (FIG. 3)): can improve this type of memory-related behavior; K+ induced GABA release (cortical slices [7]; 1 μM): no effect; activation of vertebrate neuromuscular nicotinic acetylcholine receptors [8]: potent activator; K+ induced release of ACh (cortical slices [9]; 1 μM): no effect |
| CN1CCCC1c1cccnc1 (stereo not shown) [nicotine, reference compound] | no effect |  |  |  |  | no effect | no effect | 0.2 mg/kg | effective dose in passive avoidance behavior ([3]; nucleus basalis lesioned animals): 0.02 mg/kg; effective dose in passive avoidance behavior ([3]; unlesioned animals): 0.05 mg/kg; K+ induced GABA release (cortical slices [7]; 100 nM): reduced; K+ induced release of aspartate (brain tissue slices; 100 nM, FIG. 6): increased; spontaneous release of transmitter (aspartate) (brain tissue slices; 100 nM, FIG. 6): without affecting; basal ACh release (cortical slices [9]): increased; K+ induced release of ACh (cortical slices [9]; 100 nM): increased |
